These results are taken from patent US7745390B2, “Antimicrobial peptides” (priority 2005, dated 2010).

In data set [1] the test system is bacterial strains. In words: organism not typed. Format: cell-based. The procedure:
Three preferred peptides G11.46, G12.21 and G14.15, discussed above, were further tested for antimicrobial efficacy under various conditions using the 10% FCS/DMEM assay as described under CFU assay. The incubation times with the bacteria and peptide was three hours, at which time the bacteria were diluted and plated on agar. […] The MIC for each compound is highlighted.
Table 9 below repeats some data presented above in Tables 6, 7, and 8.

The subject of data set [2] is human peripheral blood mononuclear cells (PBMC). Description: Propidium iodide uptake in PBMC. Format: cell-based. Particulars: for PI uptake in normal human PBMC: 50 μM peptide, three hours. From the text: The second assay for effects on mammalian cells involved isolating human peripheral blood mononuclear cells (PBMC) and testing peptide induced uptake of propidium iodide (PI), a measure of membrane disruption. […] Thus, the vast majority of granulysin peptide derivatives are not toxic to mammalian cells even at high concentrations.

Data set [3] deals with Salmonella. The data set is classed as cell-based, S. typhimurium. The conditions noted are these: pH 7.2. The method in brief: (§1)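 First, peptides in 10 mM phosphate pH 7.2 with 0.03% LB meet bacteria (~5×10^6 CFU/ml). Second, incubation runs 3 h at 37 °C. Third, LB is added and plates grow overnight before OD600 reading.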
Data set [4] has as its system B. cereus. The data set is classed as cell-based. The conditions noted are these: pH 7.2. The method in brief:
as §1

Data set [5] deals with E. coli DH5a. The data set is classed as cell-based. Particulars: DH5a; for E. coli DH5a MIC / IC50: pH 7.2. The method in brief: as §1
Data set [6] has as its system U937 cells. In words: Lysis of tumor cells: apoptosis of U937 by 3H-thymidine. Particulars: U937, 50 μM peptide, 4-6 hours.
Method: The effects were tested in two ways. First, peptides were tested for the ability to lyse tumor cells, as judged by induction of apoptosis in the monocyte-like cell line U937. U937 cells were cultured overnight in DMEM supplemented with 10% FCS plus 1 μCi/ml ^3H-thymidine. The next day, cells were washed and cultured in DMEM/10% FCS in the presence of 50 μM peptide for 4-6 hours. Cells were then harvested and ^3H-thymidine determined by beta-scintillation counting. Apoptosis results in DNA fragmentation, so the ^3H-thymidine is reduced in cells undergoing apoptosis.
The test system of data set [7] is Jurkat cells. The data set is classed as cell-based. From the text: (§2) To further investigate the contribution of secondary structure to function, additional Peptides G16-G19 (beyond peptides G1-G15, previously reported) were synthesized. Peptide G16 is identical to G13, except that a D-alanine residue was substituted for the L-alanine at position 30. […] In peptide G17, the two arginine residues in loop two are substituted with glutamine.
(§3) As shown above, substitution of the two arginine residues in Loop 2 with glutamine abrogates activity against Jurkat cells but only slightly affects lysis of S. typhimurium. Peptide G18 is identical to G14 except that a D-arginine was substituted at position 46. […] Peptide G19 incorporates both the R→Q substitutions as well as the D-arginine at position 46.

Data set [8] has as its system S. typhimurium. Description: Lysis of bacteria by counting bacterial colonies on plates. The data set is classed as cell-based. The conditions noted are these: colony counting.
Excerpt: as §2, §3
The experiments described above characterizing the activity of granulysin peptides G1-G18 relied on counting bacterial colonies on plates. This assay is quite labor intensive and would not allow evaluation of many different compounds on a number of different microbes. Therefore, we optimized an assay in which the entire procedure could be completed in a single microtiter well. […] The OD at 600 nm is read on an ELISA plate reader. […]

The test system of data set [9] is E. coli. Particulars: previously reported; cited from earlier work.

Converted amounts (≈) assume the structure as drawn. Square brackets hold non-standard residues; d marks the D form. Ends that are not written are not given here. Peptide text beside a SMILES is read from it.

In general, MIC refers to the least concentration at which growth counts as inhibited. The low end stands for inhibition by little substance, the high end for a need for much substance. A word on the IC50: it is the point on the concentration scale where inhibition reaches its midpoint. Lower therefore signals inhibition by little substance. For the molecule `CSCC[C@@H](NC(=O)[C@H]1CCCN1C(=O)[C@@H](CCCNC(=N)N)NC(=O)[C@@H](CCCNC(=N)N)NC(=O)[C@@H](CO)NC(=O)[C@H](NC(=O)[C@@H](CCCNC(=N)N)NC(=O)[C@H](N)CCCNC(=N)N)C(C)C)C(=O)N[C@H](CCCNC(=N)N)C(=O)N[C@H](CCCNC(=N)N)C(=O)N[C@H](Cc1ccc(O)cc1)C(=O)N[C@H](CCCNC(=N)N)C(=O)N[C@H](CO)C(=O)N[C@H](CCCNC(=N)N)C(=O)N[C@H](CCCNC(=N)N)C(=O)N1CCC[C@@H]1C(=O)N[C@H](CCCNC(=N)N)C(=O)N[C@H](CCCNC(=N)N)C(=O)N[C@H](CC(C)C)C(=O)N[C@@H](C(=O)O)C(C)C` [Peptide G12.21, rrvsrrpmrryrsrrprrlv] (H-[dR][dR][dV][dS][dR][dR][dP][dM][dR][dR][dY][dR][dS][dR][dR][dP][dR][dR][dL][dV]-OH), the MIC in data set [1] (ATCC#25922, 3 h) was 0.63 µM (≈ 1.71 µg/mL); in [1] (ATCC#29213, 3 h) it was 0.32 to 0.63 µM; in [1] (ATCC#53522, 3 h), 0.02 µM (≈ 0.0542 µg/mL); in data set [1] (SL1344, 3 h), 1.25 to 2.5 µM; in data set [5], 0.2 µM (≈ 0.542 µg/mL). In [2], the “toxicity against mammalian cells” value is on record as “no toxicity”. Also, the IC50 in [3] is 210 nM; in [4], 210 nM; in [5], below 78 nM. For the same molecule, the “Salmonella MIC” value in data set [3] is 0.35 µM. Besides, in data set [4], the “B. cereus MIC” value is 0.35 µM. Also, in data set [5], the “E. coli DH5a MIC” value is 0.2 µM.
Turning to `CC[C@@H](C)[C@@H](NC(=O)[C@@H](CCCNC(=N)N)NC(=O)[C@@H](CCCNC(=N)N)NC(=O)[C@@H](CO)NC(=O)[C@@H](CCCNC(=N)N)NC(=O)[C@@H](Cc1ccc(O)cc1)NC(=O)[C@@H](CCCNC(=N)N)NC(=O)[C@@H](CCCNC(=N)N)NC(=O)[C@@H](CCSC)NC(=O)[C@@H](Cc1ccccc1)NC(=O)[C@@H](CCCNC(=N)N)NC(=O)[C@@H](CCCNC(=N)N)NC(=O)[C@@H](CO)NC(=O)[C@H](NC(=O)[C@@H](CCCNC(=N)N)NC(=O)[C@H](N)CCCNC(=N)N)C(C)C)C(=O)N[C@H](CCCNC(=N)N)C(=O)N[C@H](CCCNC(=N)N)C(=O)N[C@H](CC(C)C)C(=O)N[C@@H](C(=O)O)C(C)C` [Peptide G12.34, rrvsrrfmrryrsrrirrlv] (H-[dR][dR][dV][dS][dR][dR][dF][dM][dR][dR][dY][dR][dS][dR][dR][dI][dR][dR][dL][dV]-OH), in data set [2], the “toxicity against mammalian cells” value is on record as “somewhat lytic against mammalian cells” and the “PI uptake in normal human PBMC” value is “caused PI uptake in normal human PBMC”. In data set [3], the IC50 was 210 nM and the “Salmonella MIC” value turned out to be 0.78 µM. Further, in [4], the “B. cereus MIC” value is 0.31 µM and the IC50 turned out to be 120 nM. For the same molecule, in data set [5], the “E. coli DH5a MIC” value was determined as 0.2 µM and the IC50 was 110 nM. Also, the “apoptosis of tumor cells” value in data set [6] is recorded as “cause apoptosis of tumor cells”.
For `CSCC[C@@H](NC(=O)[C@@H](Cc1ccccc1)NC(=O)[C@@H](CCCNC(=N)N)NC(=O)[C@@H](CCCNC(=N)N)NC(=O)[C@@H](CO)NC(=O)[C@H](NC(=O)[C@@H](CCCNC(=N)N)NC(=O)[C@H](N)CCCNC(=N)N)C(C)C)C(=O)N[C@H](CCCNC(=N)N)C(=O)N[C@H](CCCNC(=N)N)C(=O)N[C@H](Cc1ccc(O)cc1)C(=O)N[C@H](CCCNC(=N)N)C(=O)N[C@H](CO)C(=O)N[C@H](CCCNC(=N)N)C(=O)N[C@H](CCCNC(=N)N)C(=O)N1CCC[C@@H]1C(=O)N[C@H](CCCNC(=N)N)C(=O)N[C@H](CCCNC(=N)N)C(=O)N[C@H](CC(C)C)C(=O)N[C@@H](C(=O)O)C(C)C` [Peptide G12.35, rrvsrrfmrryrsrrprrlv] (H-[dR][dR][dV][dS][dR][dR][dF][dM][dR][dR][dY][dR][dS][dR][dR][dP][dR][dR][dL][dV]-OH), in [2], the “toxicity against mammalian cells” value is “somewhat less toxic against mammalian cells” and the “PI uptake in normal human PBMC” value is “caused PI uptake in normal human PBMC”. Further, in data set [3], the IC50 is 210 nM and the “Salmonella MIC” value worked out at 0.32 µM. In data set [4], the “B. cereus MIC” value is 0.75 µM and the IC50 came out at 450 nM. In addition, in [5], the “E. coli DH5a MIC” value was 0.11 µM and the IC50 is below 78 nM. Further, in [6], the “apoptosis of tumor cells” value is on record as “cause apoptosis of tumor cells”.
As for `CSCC[C@@H](NC(=O)[C@@H](Cc1ccccc1)NC(=O)[C@@H](CCCNC(=N)N)NC(=O)[C@@H](CCCNC(=N)N)NC(=O)[C@@H](CO)NC(=O)[C@H](NC(=O)[C@@H](CCCNC(=N)N)NC(=O)[C@@H](CCCNC(=N)N)NC(=O)[C@@H](Cc1c[nH]c2ccccc12)NC(=O)[C@@H](CCCNC(=N)N)NC(=O)[C@@H](CO)NC(=O)[C@@H](CCCNC(=N)N)NC(=O)CN)C(C)C)C(=O)N[C@H](CCCNC(=N)N)C(=O)N[C@H](CCCNC(=N)N)C(=O)O` [Peptide G14.15, grsrwrrvsrrfmrr] (H-G[dR][dS][dR][dW][dR][dR][dV][dS][dR][dR][dF][dM][dR][dR]-OH), the MIC in data set [1] (ATCC#25922, 3 h) is 0.63 to 1.25 µM; in data set [1] (ATCC#29213, 3 h) it was 10 µM (≈ 20.6 µg/mL); in data set [1] (ATCC#53522, 3 h) it was 0.16 µM (≈ 0.33 µg/mL); in [1] (SL1344, 3 h), 2.5 to 5 µM; in [5], 0.3 µM (≈ 0.619 µg/mL). Also, the “PI uptake in normal human PBMC” value in data set [2] is “caused PI uptake in normal human PBMC”. Further, the IC50 in data set [3] is 150 nM; in data set [4], below 78 nM; in [5], below 78 nM. In data set [3], the “Salmonella MIC” value came to 0.35 µM. The “B. cereus MIC” value in data set [4] was determined as 0.2 µM. In [5], the “E. coli DH5a MIC” value was 0.1 µM.
As for `CSCC[C@H](NC(=O)[C@H](Cc1ccccc1)NC(=O)[C@H](CC(N)=O)NC(=O)[C@@H](CCCNC(=N)N)NC(=O)[C@H](CS)NC(=O)[C@@H](NC(=O)[C@H](CC(=O)O)NC(=O)[C@H](CCCNC(=N)N)NC(=O)[C@H](Cc1c[nH]c2ccccc12)NC(=O)[C@H](CCCNC(=N)N)NC(=O)[C@H](CO)NC(=O)[C@H](CCCNC(=N)N)NC(=O)CN)C(C)C)C(=O)N[C@@H](CCCNC(=N)N)C(=O)N[C@@H](CCCNC(=N)N)C(=O)O` [Peptide G18, GRSRWRDVCrNFMRR] (H-GRSRWRDVC[dR]NFMRR-OH), in data set [7], the “lysis of Jurkat cells” value is on record as “loses some activity against Jurkat cells”.
Consider GQSQWRDVCrNFMRR [Peptide G19], for which the “lysis of bacteria (S. typhimurium)” value in [8] is “behaves identically to G115”.
On to “GRSRWRDVCRNFMRR [Peptide G14, GRSRWRDVCRNFMRR, reference compound]”, for which, in [3], inhibition was half-maximal at 890 nM (IC50) and the “Salmonella MIC” value is 1.37 µM. In addition, in data set [4], the “B. cereus MIC” value was determined as 2.8 µM and the IC50 turned out to be 1750 nM. For the same molecule, in [5], the “E. coli DH5a MIC” value was 1.37 µM and the IC50 is 890 nM. Also, the “lysis of Jurkat cells” value in [7] was “lyses both bacteria and mammalian cells”.
For QRSVSNAaTRVCRTGQSQW [Peptide G17], the “lysis of bacteria (S. typhimurium)” value in data set [8] was “no longer exhibits activity against S. typhimurium”. Also, the “lysis of Jurkat cells” value in data set [7] is recorded as “Neither peptide G16 nor G17 lysed Jurkat cells in an appreciable way”.

B1: recombinant granulysin: protein expressed by human cytotoxic T lymphocytes and natural killer cells, recombinant form (protein, UniProt P22749 23-145, looked up)
Granulysin: RLSPEYYDLARAHLRDEEKSCPCLAQEGPQGDLLTKTQELGRDYRTCLTIVQKLKKMVDKPTQRSVSNAATRVCRTGRSRWRDVCRNFMRRYQSRVTQGLVAGETAQQICEDLRLCIPSTGPL
Consider B1, for which, in data set [9], the “activity depending on ionic strength of media” value is given as “completely loses activity in media>50 mM salt”.
